The NIST ThermoML archive (doi:10.1021/je501054c)
Several values for one entry are separate records, joined by “and”; a condition that tells them apart may be missing. Equal entries are not always repeated. ± gives the expanded uncertainty stated by the source.

What was measured:
[1] = 100 kPa, Liquid; for mass density: Vibrating tube method
[2] = mn = molality of the nth substance listed, in mol/kg; settings: 100 kPa, Liquid; for viscosity: Capillary tube (Ostwald / Ubbelohde) method; for mass density: Vibrating tube method

CC#N [acetonitrile]
Settings	viscosity [mPa·s]
[1], 298.15 K, Capillary tube (Ostwald / Ubbelohde) method	0.343 ± 0.0073

[1]
Settings	mass density
298.15 K	776.65 ± 3.9 kg/m3
303.15 K	771.43 ± 3.9 kg/m3 and 768.14 ± 3.8 kg/m3
308.15 K	761.45 ± 3.8 kg/m3 [middle of 4 runs]
313.15 K	755.34 ± 3.8 kg/m3 [middle of 4 runs]

CCCCCn1cc[n+](C)c1.[Br-] [1-pentyl-3-methylimidazolium bromide] + CC#N
[2]
Settings	mass density, 298.15 K [kg/m3]	mass density, 303.15 K [kg/m3]	mass density, 308.15 K [kg/m3]	mass density, 313.15 K [kg/m3]	viscosity, 298.15 K [mPa·s]
m1 = 0.03	779.11 ± 3.9	770.63 ± 3.9	762.52 ± 3.8	755.09 ± 3.8	–
m1 = 0.0301	–	–	–	–	0.3532 ± 0.0075
m1 = 0.0509	780.82 ± 3.9	772.34 ± 3.9	764.26 ± 3.8	756.83 ± 3.8	–
m1 = 0.0511	–	–	–	–	0.3605 ± 0.0076
m1 = 0.0721	782.52 ± 3.9	774.06 ± 3.9	765.99 ± 3.8	758.59 ± 3.8	–
m1 = 0.0726	–	–	–	–	0.366 ± 0.0077
m1 = 0.1016	784.87 ± 3.9	776.42 ± 3.9	768.38 ± 3.8	760.99 ± 3.8	–
m1 = 0.1026	–	–	–	–	0.3724 ± 0.0079
m1 = 0.123	786.55 ± 3.9	778.11 ± 3.9	770.11 ± 3.9	762.71 ± 3.8	–
m1 = 0.1245	–	–	–	–	0.3782 ± 0.008
m1 = 0.1434	788.15 ± 3.9	779.71 ± 3.9	771.7 ± 3.9	764.33 ± 3.8	–
m1 = 0.1455	–	–	–	–	0.3814 ± 0.0081
m1 = 0.1628	789.62 ± 4	781.22 ± 3.9	773.22 ± 3.9	765.86 ± 3.8	–
m1 = 0.1655	–	–	–	–	0.3873 ± 0.0082
m1 = 0.1944	792 ± 4	783.62 ± 3.9	775.67 ± 3.9	768.32 ± 3.8	–
m1 = 0.1983	–	–	–	–	0.3928 ± 0.0083
m1 = 0.211	793.26 ± 4	784.87 ± 3.9	776.92 ± 3.9	769.58 ± 3.9	–
m1 = 0.2155	–	–	–	–	0.3975 ± 0.0084
m1 = 0.2313	794.76 ± 4	786.39 ± 3.9	778.44 ± 3.9	771.12 ± 3.9	–
m1 = 0.2367	–	–	–	–	0.4016 ± 0.0085

CCC[n+]1ccn(C)c1.[Br-] [1-methyl-3-propylimidazolium bromide] + CC#N
[2]
Settings	mass density, 298.15 K [kg/m3]	mass density, 303.15 K [kg/m3]	mass density, 308.15 K [kg/m3]	mass density, 313.15 K [kg/m3]	viscosity, 298.15 K [mPa·s]
m1 = 0.0248	778.67 ± 3.9	773.46 ± 3.9	763.49 ± 3.8	757.41 ± 3.8	–
m1 = 0.0251	–	–	–	–	0.3488 ± 0.0074
m1 = 0.0422	–	–	–	–	0.3525 ± 0.0075
m1 = 0.0423	780.09 ± 3.9	774.88 ± 3.9	764.92 ± 3.8	758.84 ± 3.8	–
m1 = 0.0636	781.79 ± 3.9	776.59 ± 3.9	766.63 ± 3.8	760.57 ± 3.8	–
m1 = 0.0644	–	–	–	–	0.3573 ± 0.0076
m1 = 0.081	783.18 ± 3.9	777.98 ± 3.9	768.02 ± 3.8	761.96 ± 3.8	–
m1 = 0.0816	–	–	–	–	0.3607 ± 0.0076
m1 = 0.1036	784.95 ± 3.9	779.74 ± 3.9	769.8 ± 3.9	763.74 ± 3.8	–
m1 = 0.1051	–	–	–	–	0.3633 ± 0.0077
m1 = 0.123	786.44 ± 3.9	781.24 ± 3.9	771.31 ± 3.9	765.27 ± 3.8	–
m1 = 0.1245	–	–	–	–	0.3675 ± 0.0078
m1 = 0.1437	788.02 ± 3.9	782.86 ± 3.9	772.93 ± 3.9	766.87 ± 3.8	–
m1 = 0.1461	–	–	–	–	0.3724 ± 0.0079
m1 = 0.1636	789.52 ± 4	784.35 ± 3.9	774.44 ± 3.9	768.39 ± 3.8	–
m1 = 0.1667	–	–	–	–	0.3771 ± 0.008
m1 = 0.1835	791.02 ± 4	785.84 ± 3.9	775.93 ± 3.9	769.89 ± 3.9	–
m1 = 0.1873	–	–	–	–	0.38 ± 0.008
m1 = 0.2042	792.57 ± 4	787.39 ± 3.9	777.47 ± 3.9	771.44 ± 3.9	–
m1 = 0.2082	–	–	–	–	0.3844 ± 0.0081
